ChEMBL document CHEMBL3137667, “[Drug-induced liver injury; fourteenth updated edition of the bibliographic database of liver injuries and related drugs]” (Gastroenterol Clin Biol, 2004)

Tests used:
[1] = Highest frequency of moderate liver toxicity observed during clinical trials, expressed as a percentage. [column '% BIOL' in source]; conditions: human
[2] = Highest frequency of acute liver toxicity observed during clinical trials, expressed as a percentage. [column '% AIGUE' in source]; conditions: human
[3] = Times to onset, minimal and maximal, observed in the indexed observations. [column 'DELAI' in source]; conditions: human
[4] = human, serum
[5] = human, serum; remark: listed apart in the source
[6] = human
[7] = human; remark: listed apart in the source
[8] = human; remark: listed apart in the source
[9] = human, serum, 4383 h
[10] = human; remark: listed apart in the source
[11] = human; remark: listed apart in the source
[12] = human; remark: listed apart in the source
[13] = human; remark: listed apart in the source
[14] = human; remark: listed apart in the source
[15] = human; remark: listed apart in the source
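Wherever Hepatotoxicity (association with vascular disease) is given: count of indexed literature references reporting vascular liver injury in humans, e.g. peliosis hepatitis, hepatic veno-occlusive disease or Budd-Chiari syndrome.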
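Wherever Hepatotoxicity (benign tumour) is given: value is a count of indexed literature references citing a benign tumour confirmed by histopathology.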
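Wherever Hepatotoxicity (choleostasis) is given: human cholestatic liver injury, shown by histopathology or by peak ALT or AST elevation over alkaline phosphatase ratio below 2, value counts indexed literature reports.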
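Wherever Hepatotoxicity (chronic liver disease) is given: chronic liver injury confirmed by histopathology or persistently raised serum aminotransferase activity beyond 6 months, value given as the count of indexed literature references.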
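Wherever Hepatotoxicity (cirrhosis) is given: value is a count of indexed literature references reporting cirrhosis confirmed by histopathology.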
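Wherever Hepatotoxicity (cytolytic) is given: human cytolytic liver injury, shown by histopathology or by a ratio above 5 of peak ALT or AST elevation to alkaline phosphatase elevation, value counts indexed references.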
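Wherever Hepatotoxicity (granulomatous hepatitis) is given: value is a count of indexed literature references reporting granulomatous liver disease confirmed by histopathology.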
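Wherever Hepatotoxicity (malignant tumour) is given: malignant tumour confirmed by histopathology, value gives the count of indexed literature references reporting it.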
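Wherever Hepatotoxicity (severe hepatitis) is given: human clinical data: severe hepatitis, meaning potentially life-threatening liver failure or clinically observed cases, the value counts how many indexed literature references report it.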
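Wherever Hepatotoxicity (steatosis) is given: steatosis confirmed by histopathology, value is the count of indexed references.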

| Compound | Hepatotoxicity (moderate) [1] | Hepatotoxicity (acute) [2] | Hepatotoxicity (time to onset) [3] | Hepatotoxicity (moderate) [4] | Hepatotoxicity (acute) [5] | Hepatotoxicity (cytolytic) [6] | Hepatotoxicity (choleostasis) [7] | Hepatotoxicity (severe hepatitis) [8] | Hepatotoxicity (chronic liver disease) [9] | Hepatotoxicity (cirrhosis) [10] | Hepatotoxicity (granulomatous hepatitis) [11] | Hepatotoxicity (association with vascular disease) [12] | Hepatotoxicity (steatosis) [13] | Hepatotoxicity (malignant tumour) [14] | Hepatotoxicity (benign tumour) [15] | further results |
| --- | --- | --- | --- | --- | --- | --- | --- | --- | --- | --- | --- | --- | --- | --- | --- | --- |
| O=C(NCN1CCOCC1)c1cnccn1 [MORINAMIDE] | 1.8% | 0.5% | 4 months | 2 | 2 | 2 | 0 | 1 | 0 | 0 | 0 | 0 | 0 | 0 | 0 | – |
| COc1nc(C)nc(Cl)c1N=C1NCCN1 [MOXONIDINE] | – | – | 9 months | 0 | 1 | 1 | 1 | – | 0 | 0 | 0 | 0 | 0 | 0 | 0 | Hepatotoxicity (moderate) ([1]; Liver): 0%; Hepatotoxicity (acute) ([2]; Liver): 0%; Hepatotoxicity (severe hepatitis) ([8]; Liver): 1 |
| COc1c(C)c2c(c(O)c1C/C=C(\C)CCC(=O)OCCN1CCOCC1)C(=O)OC2 [MYCOPHENOLATE MOFETIL] | 33.3% | 0% | 2 weeks | 3 | 1 | 1 | 0 | 0 | 0 | 0 | 0 | 0 | 0 | 0 | 0 | – |
| CCN(CC)CCOC(=O)[C@@H](Cc1cccc2ccccc12)C[C@@H]1CCCO1 [NAFTIDROFURYL] | 0% | 0% | 7 weeks - 4.3 months | 0 | 3 | 2 | 2 | 0 | 0 | 0 | 1 | 0 | 0 | 0 | 0 | – |
| CN1CCOC(c2ccccc2)c2ccccc2C1 (stereo not given) [NEFOPAM] | 14.3% | 0% | 4 weeks | 1 | 0 | 0 | 0 | 0 | 0 | 0 | 0 | 0 | 0 | 0 | 0 | – |
| O=[N+]([O-])c1cc(Cl)cc(-c2cc(Cl)cc([N+](=O)[O-])c2O)c1O [NICLOFOLAN] | 0% | 0% | 1 week | 0 | 1 | 0 | 1 | 0 | 0 | 0 | 0 | 0 | 0 | 0 | 0 | – |
| COCCOC(=O)C1=C(C)NC(C)=C(C(=O)OC(C)C)C1c1cccc([N+](=O)[O-])c1 (stereo not given) [NIMODIPINE] | 2.7% | 0.7% | 6 months | 5 | 3 | 1 | 0 | 0 | 0 | 0 | 0 | 0 | 0 | 0 | 0 | – |
| CNC(=C[N+](=O)[O-])NCCSCc1csc(CN(C)C)n1 [NIZATIDINE] | 3.5% | 0.2% | 2 weeks | 3 | 2 | 2 | 0 | 1 | 0 | 1 | 0 | 0 | 0 | 0 | 0 | – |
| CC(=O)[C@@]1(O)CC[C@H]2[C@@H]3C=C(C)C4=CC(=O)CC[C@@H]4[C@H]3CC[C@@]21C [NOMEGESTROL] | 0% | 0% | 4 months - 5 months | 0 | 2 | 2 | 0 | 2 | 0 | 0 | 0 | 0 | 0 | 0 | 0 | – |
| OCCN1CCN(CCCN2c3ccccc3C=Cc3ccccc32)CC1 [OPIPRAMOL] | 0% | 0% | 11 days - 11 weeks | 0 | 2 | 2 | 0 | 1 | 0 | 0 | 0 | 0 | 0 | 0 | 0 | – |
| CCCCCCCCCCC[C@@H](C[C@@H]1OC(=O)[C@H]1CCCCCC)OC(=O)[C@H](CC(C)C)NC=O [ORLISTAT] | 0% | 0% | 3 weeks - 1.5 months | 0 | 2 | 1 | 1 | 1 | 0 | 0 | 0 | 0 | 0 | 0 | 0 | – |
| C=CCOc1ccccc1OCC(O)CNC(C)C (stereo not given) [OXPRENOLOL] | – | – | 1 day - 15 days | 1 | 1 | – | – | – | 0 | 0 | – | 0 | 0 | 0 | 0 | Hepatotoxicity (moderate) ([1]; Liver): 0%; Hepatotoxicity (acute) ([2]; Liver): 0%; Hepatotoxicity (cytolytic) ([6]; Liver): 1; Hepatotoxicity (choleostasis) ([7]; Liver): 0; Hepatotoxicity (severe hepatitis) ([8]; Liver): 0; Hepatotoxicity (granulomatous hepatitis) ([11]; Liver): 0 |
| CC(=O)O[C@H]1C(=O)[C@@]2(C)[C@H]([C@H](OC(=O)c3ccccc3)[C@]3(O)C[C@H](OC(=O)[C@H](O)[C@@H](NC(=O)c4ccccc4)c4ccccc4)C(C)=C1C3(C)C)[C@]1(OC(C)=O)CO[C@@H]1C[C@@H]2O [PACLITAXEL] | – | – | 1 days | 7 | 5 | – | – | – | 0 | 0 | – | 0 | 0 | 0 | 0 | Hepatotoxicity (moderate) ([1]; Liver): 50%; Hepatotoxicity (acute) ([2]; Liver): 6%; Hepatotoxicity (cytolytic) ([6]; Liver): 3; Hepatotoxicity (choleostasis) ([7]; Liver): 0; Hepatotoxicity (severe hepatitis) ([8]; Liver): 0; Hepatotoxicity (granulomatous hepatitis) ([11]; Liver): 0 |
| COc1ccnc(C[S+]([O-])c2nc3ccc(OC(F)F)cc3[nH]2)c1OC (stereo not given) [PANTOPRAZOLE] | 8.3% | 0% | 2 days - 8 days | 13 | 2 | 2 | 0 | 1 | 0 | 0 | 0 | 0 | 0 | 0 | 0 | – |
